Assay results published in patent US11672795B2, “Compositions and methods for treating pulmonary vascular disease” (UNIVERSITY OF PITTSBURGH-OF THE COMMONWEALTH SYSTEM OF …, priority 2016, dated 2023).

What was measured:
Format in all cases: in vivo, rat
[1] = tested on: monocrotaline-exposed rats; assay: Right heart catheterization and right ventricular weight (RVSP, Fulton index) in monocrotaline-exposed rats; conditions: for hemodynamic and histologic indices of PH: BAPN or verteporfin alone; for PAH severity as quantified by RVSP: daily BAPN or daily i.p. verteporfin 25 mg/kg; for right ventricular remodeling (Fulton index, RV/LV+S) / right ventricular systolic pressure (RVSP): daily i.p. 10 mg/kg, C968 from day 2, CB839 from day 7
Protocol: Monocrotaline-treated rats: As we previously described (7, 8), male Sprague-Dawley rats (10-14 week old) were injected with 60 mg/kg monocrotaline at time 0; at 0-4 weeks post-exposure, right heart catheterization was performed followed by harvest of lung tissue for RNA extraction or paraffin embedding, as described below (section: Tissue harvest).
After physiological measurements by direct right ventricular puncture, the pulmonary vessels were gently flushed with 1 cc of saline to remove the majority of blood cells, prior to harvesting cardiopulmonary tissue. The heart was removed, followed by dissection and weighing of the right ventricle (RV) and of the left ventricle+septum (LV+S). Organs were then harvested for histological preparation or flash frozen in liquid N2 for subsequent homogenization and extraction of RNA and/or protein. To further process lung tissue specifically, prior to excision, lungs were flushed with PBS at constant low pressure (approximately 10 mmHg) via right ventricular cannulation, followed by tracheal inflation of the left lung with 10% neutral-buffered formalin (Sigma-Aldrich) at a pressure of approximately 20 cm H2O. After excision and 16 hours of fixation in 10% neutral-buffered formalin at 25° C., lung tissues were paraffin embedded via an ethanol-xylene dehydration series, before being sliced into 5 μm sections (Hypercenter XP System and Embedding Center, Shandon).
To induce PH, male Sprague-Dawley rats (10-14 week old) were injected intraperitoneally with 60 mg/kg monocrotaline (Sigma-Aldrich). After two days, rats underwent intraperitoneal injection daily with 25 mg/kg of verteporfin (Active Biochemicals Company, Ltd) solubilized in 5% dimethyl sulfoxide (DMSO, Sigma-Aldrich). Two days after the last injection on day 21 post-monocrotaline injection, right heart catheterization was performed followed by harvest of lung tissue and CD31+ cells for RNA or protein extraction, paraffin embedding, or cryopreservation with OCT (Sigma-Aldrich), as we described (2).
(§1) To induce PH, male Sprague-Dawley rats (10-14 week old) were injected intraperitoneally with 60 mg/kg monocrotaline (Sigma-Aldrich). After two days, serial intraperitoneal injections were given daily of C968 (10 mg/kg, Sigma-Aldrich), and after seven days post-monocrotaline injection, serial intraperitoneal injections were given daily of CB839 (10 mg/kg, Selleck Chemicals). Two days after the last injection on day 21 post-monocrotaline injection, right heart catheterization was performed followed by harvest of lung tissue and CD31+ cells for RNA or protein extraction, paraffin embedding, or cryopreservation with OCT (Sigma-Aldrich), as we described (2).
as §1, with “Finally, to investigate whether glutaminolysis itself is essential for promoting pulmonary vascular proliferation in PH, two separate pharmacologic inhibitors of GLS1 (C968 and CB-839) were administered in monocrotaline-exposed rats using either a disease prevention (FIG. 5A) or disease reversal (FIG. 5B) dosing protocol. To” for “To”, “C968 or CB-839” for “C968”, “C968 or CB-839” for “CB839”, “as” for “as we”, “previously (Bertero T, et al. Cell Reports. 2015; 13(5):1016-32).” for “(2).”

YAP/TAZ target genes = assay: RT-qPCR of YAP/TAZ target genes in CD31+ cells of monocrotaline-exposed rats; conditions: daily BAPN or daily i.p. verteporfin 25 mg/kg
Protocol: (§2) Messenger RNAs were reverse transcribed using the Multiscript RT kit (Life Technologies) to generate cDNA. cDNA was amplified via fluorescently labeled Taqman primer sets using an Applied Biosystems 7900HT Fast Real Time PCR device. To specifically determine the relative expression of the two GLS1 isoforms KGA and GAC, TaqMan gene expression assays Hs01014019_m1 and Hs01022166_m1 were used respectively. Fold-change of RNA species was calculated using the formula (2^−ΔΔCt), normalized to RPLP0 expression.
(§3) As previously reported (8, 11), lobes of lung tissue from a rat were diced with scissors, to which 200 μL of collagenase D solution (Sigma) was added for a final concentration of 2 mg/ml collagenase D in 4.8 mL HEPES buffer (pH=7.4). After incubation for 30 min at 37° C. with automated rotation, 20 μL of DNase I (Sigma, final concentration of 80 U/mL DNase I) was added and incubated on ice for 30 min. The solution was filtered twice by a 70 μm cell strainer (BD Biosciences) to yield a single cell suspension. After two rounds of PBS wash, cell pelleting, and resuspension, the ACK lysing buffer (Gibco) was used to remove erythrocytes. Remained cells were incubated 30 min at 4° C. with a mouse anti-rat-CD31 antibody (BD Pharmigen 555025). Cells were PBS washed twice and incubated 15 min with anti-mouse IgG1 MicroBeads (Miltenyi Biotec) according to the manufacturer protocol. Single CD31-positive cells were then collected using an autoMACS Pro Separator, per the manufacturer's instructions (Miltenyi Biotec). The purity (>95%) of CD31 positive cells was confirmed by flow cytometric analysis by a FACScan flow cytometer (BD Biosciences) after cells labeling with the FITC-conjugated anti-CD31 (ab33858, Abcam).
To induce PH, male Sprague-Dawley rats (10-14 week old) were injected intraperitoneally with 60 mg/kg monocrotaline (Sigma-Aldrich). After two days, rats underwent intraperitoneal injection daily with 25 mg/kg of verteporfin (Active Biochemicals Company, Ltd) solubilized in 5% dimethyl sulfoxide (DMSO, Sigma-Aldrich). […]

GLS1 = GLS1 expression by RT-qPCR in monocrotaline-exposed rats; conditions: for GLS expression: CD31+ cells of monocrotaline-exposed rats, daily BAPN or daily i.p. verteporfin 25 mg/kg; for GLS1 expression in lungs: monocrotaline-exposed rats, daily BAPN or daily i.p. verteporfin, vs vehicle, RT-qPCR
Protocol: as §2, §3

Structure (SMILES)	hemodynamic and histologic indices of PH [1]	PAH severity as quantified by RVSP [1]	CTGF and CYR61, YAP/TAZ target genes (YAP1-dependent gene expression) (YAP/TAZ target genes)	GLS expression (GLS1)	GLS1 expression in lungs (GLS1)	right ventricular remodeling (Fulton index, RV/LV+S) [1]	right ventricular systolic pressure (RVSP) [1]	PAH severity, as quantified by vascular remodeling, arteriolar muscularization, RVSP and right ventricular hypertrophy ([1]; prevention experiment (C968) or reversal study)	PAH severity as quantified by RVSP ([1]; listed as verteporfin)	right ventricular remodelling (Fulton index) ([1]; daily i.p. verteporfin 25 mg/kg)	CTGF and CYR61, YAP/TAZ target genes (YAP1-dependent gene expression) (YAP/TAZ target genes; listed as verteporfin)	GLS expression (GLS1; listed as verteporfin)
N#CCCN [BAPN, β-aminoproprionitrile]	improvement	in a lower extent BAPN ameliorated	decrease	decrease	decreased							
CN(C)c1ccc(C2Nc3ccc4ccccc4c3C3=C2C(=O)CC(C)(C)C3)cc1Br (stereo not shown) [C968, 5-(3-Bromo-4-(dimethylamino)phenyl)-2,2-dimethyl-2,3,5,6-tetrahydrobenzo[a]phenanthridin-4(1H)-one]						significantly decreased	significantly decreased	ameliorated				
O=C(Cc1cccc(OC(F)(F)F)c1)Nc1ccc(CCCCc2nnc(NC(=O)Cc3ccccn3)s2)nn1 [CB839]						significantly decreased	significantly decreased					
C=Cc1c(C)c2cc3nc(cc4[nH]c(cc5nc(cc1[nH]2)C(C)=C5CCC(=O)O)c(CCC(=O)OC)c4C)[C@@]1(C)C3=CC=C(C(=O)OC)[C@H]1C(=O)OC [Verteporfin, 3-[(23S,24R)-14-ethenyl-5-(3-methoxy-3-oxopropyl)-22,23-bis(methoxycarbonyl)-4,10,15,24-tetramethyl-25,26,27,28-tetraazahexacyclo[16.6.1.1^3,6.1^8,11.1^13,16.0^19,24]octacosa-1,3,5,7,9,11(27),12,14,16,18(25),19,21-dodecaen-9-yl]propanoic acid]	robust improvement	ameliorated	decrease	decrease	decreased				reductions	reductions	decreased	improved
